Measurements as given in patent US20250228827A1, “METHODS OF TREATING ERYTHROPOIETIC PROTOPORPHYRIA, X-LINKED PROTOPORPHYRIA, OR CONGENITAL ERYTHROPOIETIC PORPHYRIA WITH GLYCINE TRANSPORT INHIBITORS” (Disc Medicine, Inc., priority 2021, published 2025).

What was measured:
[1] = test system: FECH knockdown CD34+ cells; assay: PPIX accumulation in FECH knockdown CD34+ cells (CD34+-EPP cells), LC-MS/MS; assay type: cell-based, human; settings: for effect on PPIX accumulation / IC50: FECH knockdown CD34+ cells; for IC50: Homo sapiens, treated 9 days (day 8 to day 16), LC-MS/MS, read-out: IC50 on PPIX levels
Excerpt: To investigate the effects of GlyT1 inhibitors in human hematopoietic stem cells with an EPP phenotype, lentiviral vectors expressing shRNA of FECH were constructed (Table 2) and transduced at 25 MOI into human cord blood-CD34+ cells purchased from Stemexpress.
Specifically, the purchased CD34+ cells were defrosted and expanded for eight days in serum-free Hematopoietic Progenitor Expansion Medium XF (C-28021) supplemented with Cytokine Mix E (human TPO, SCF, FLT-3 ligand and IL-3, #C-39891). During the expansion phase, CD34 expression was monitored, cells were frozen in a serum-free DMSO-based freezing medium (CryoStor® CS2).
For FECH knock-down experiments, cells expanded from a single vial were used to avoid donor heterogeneity. Freshly defrosted cells were expanded for three days (day 0-day 3) and infected with lentivirus expressing shControl or shFECH at an MOI of 25 in the presence of polybrene. After transduction, shRNA expressing cells were selected in the presence of puromycin (1 ug/ml) for four days (day 4-day 7). FECH expression levels were determined in the shFECH transfected CD34+ cells at Day 8. FECH mRNA level was reduced by ˜80% (0.196±0.307) in the shFECH transfected CD34+ cells (FIG. 5A). FECH protein level was reduced by ˜62% in the shFECH transfected CD34+ cells (FIG. 5B and FIG. 5C).
In order to evaluate the effect of GlyT1 inhibitor on PPIX accumulation in CD34^+-EPP cells, the cells were treated with serial dilutions of the compounds or DMSO control in the erythroid differentiation medium for 9 days (day 8 to day 16). The differentiated erythroid cells were harvested at day 16 and assayed for the intracellular PPIX levels by LC-MS/MS.

K562 clone 10-9 cells = assay: PPIX accumulation in K562-EPP cellular model (Clone 10-9), flow cytometry; assay type: cell-based; settings: for effect on PPIX accumulation by flow cytometry: 96 hours; for IC50: Homo sapiens, 96 hours at 37° C., flow cytometry, read-out: IC50 of inhibition of PPIX accumulation
Description: CRISPR-Cas9 technology was utilized to generate genetic changes in the Ferrochelatase gene (FECH). Guide RNA sgRNA-1 was designed to target Exon 3 of FECH genetic locus and generate a knockout allele at the FECH genomic locus by introduction of indels that lead to frameshift of the coding sequence and premature stop codon. The K562 cells were cultured in IMDM medium supplemented with 10% fetal bovine serum (FBS), 1% penicillin/streptomycin (PS). CRISPR Cas9 RNP complex with guide RNA (gRNA) was electroporated in K562 cells. The transfection was performed using 4D Nucleofector, SF kit, FF-120 program. The transfected cells were plated at densities of 0.5 cells per well in 96-well plates in complete medium. Cells were allowed to grow until colonies were visible in the well. The K562-EPP subclones were individually expanded and screened for the FECH knockout genotype by PCR of genomic DNA and for the expression of the FECH gene by RT-PCR. K562-Clone 10 is determined to be heterozygous for the FECH knockout allele and has reduced expression level of FECH mRNA than the parental K562 cell line.
In order to introduce the IVS3-T48C mutation into the wild-type allele of the FECH gene in K562-Clone10, CRISPR Cas9 RNP complex with guide RNA sgRNA-2 and single stranded DNA donor were electroporated into the K562-clonel0 that is already heterozygous for the FECH knockout allele generated from the CRISPR-Cas9 gene editing event described in the previous paragraph. sgRNA-2 was designed to target Intron 3, close to the target site IVS3-T48. Similarly, single-cell clones were isolated from this round of gene editing by limited dilution. TA cloning and Sanger sequencing were used to confirm single-cell clones and genotypes. This procedure generated K562 Clone10-IVS-Clone9 (Clone 10-9), which carries the FECH knockout allele in trans with the IVS3-T48C mutation in the other FECH allele.
The effect of GlyT1 inhibitors on reducing PPIX accumulation was evaluated in the K562-EPP cellular model, Clone 10-9. 900 μL of K562 clone 10-9 cells at 2×10^5 cells/mL in IMDM media with 10% FBS and 1% PS were plated into a 24-well plate. After 24-hour incubation, 100 μL of compound in DMSO/media was added in different concentration. The final concentration of DMSO was 0.1%. The compound was incubated for 96 hours at 37° C. Cell viability and cell count were measured by Vi-CELL XR Complete System. Finally, the effect of the compound on PPIX level was determined by flow cytometry.

IC50 [1]	IC50 (K562 clone 10-9 cells)	SMILES	PPIX pmol/million cells ([1]; 0.46 nM, sample 1)	PPIX pmol/million cells ([1]; 0.46 nM, sample 2)	PPIX pmol/million cells ([1]; 1.37 nM, sample 1)	PPIX pmol/million cells ([1]; 1.37 nM, sample 2)	PPIX pmol/million cells ([1]; 4.12 nM, sample 1)	PPIX pmol/million cells ([1]; 4.12 nM, sample 2)	PPIX pmol/million cells ([1]; 12.35 nM, sample 1)	PPIX pmol/million cells ([1]; 12.35 nM, sample 2)	PPIX pmol/million cells ([1]; 37.04 nM, sample 1)	PPIX pmol/million cells ([1]; 37.04 nM, sample 2)	PPIX pmol/million cells ([1]; 111.11 nM, sample 1)	PPIX pmol/million cells ([1]; 111.11 nM, sample 2)	PPIX pmol/million cells ([1]; 333.33 nM, sample 1)	PPIX pmol/million cells ([1]; 333.33 nM, sample 2)	PPIX pmol/million cells ([1]; 1000.00 nM, sample 1)	PPIX pmol/million cells ([1]; 1000.00 nM, sample 2)	effect on PPIX accumulation [1]	effect on PPIX accumulation by flow cytometry (K562 clone 10-9 cells)
97.1 nM	43.5 nM	C[C@@H](Oc1ccc(S(C)(=O)=O)cc1C(=O)N1C[C@@H]2C[C@]2(c2cc(C(F)(F)F)on2)C1)C(F)(F)F [Compound A]	19.2 pmol/million cells	18.2 pmol/million cells	11.8 pmol/million cells	16.7 pmol/million cells	18.5 pmol/million cells	13.3 pmol/million cells	30.1 pmol/million cells	20.3 pmol/million cells	18.5 pmol/million cells	19.4 pmol/million cells	7 pmol/million cells	7.25 pmol/million cells	5.97 pmol/million cells	4.69 pmol/million cells	3.94 pmol/million cells	6.95 pmol/million cells	decreased	dose-dependent inhibition of PPIX accumulation
33.5 nM	76.8 nM	C[C@H](Oc1ccc(S(C)(=O)=O)cc1C(=O)N1Cc2cc(C(F)(F)F)cnc2C1)C(F)(F)F [Compound X]	25 pmol/million cells	27.1 pmol/million cells	27.3 pmol/million cells	46.5 pmol/million cells	34.4 pmol/million cells	24.7 pmol/million cells	34.6 pmol/million cells	34.6 pmol/million cells	14.7 pmol/million cells	17.5 pmol/million cells	13.6 pmol/million cells	13.5 pmol/million cells	14.1 pmol/million cells	15.2 pmol/million cells	11 pmol/million cells	12.8 pmol/million cells	decreased PPIX accumulation	dose-dependent inhibition of PPIX accumulation
